Assay results reported in ChEMBL document CHEMBL4813911 (J Med Chem, 2020).
Values belong to the molecule of their own block, whether it stands above or below them.

Tests used:
[1] = target: T1, Amine oxidase [flavin-containing] A (Homo sapiens, UniProt P21397)
T1 sequence (P21397 whole entry): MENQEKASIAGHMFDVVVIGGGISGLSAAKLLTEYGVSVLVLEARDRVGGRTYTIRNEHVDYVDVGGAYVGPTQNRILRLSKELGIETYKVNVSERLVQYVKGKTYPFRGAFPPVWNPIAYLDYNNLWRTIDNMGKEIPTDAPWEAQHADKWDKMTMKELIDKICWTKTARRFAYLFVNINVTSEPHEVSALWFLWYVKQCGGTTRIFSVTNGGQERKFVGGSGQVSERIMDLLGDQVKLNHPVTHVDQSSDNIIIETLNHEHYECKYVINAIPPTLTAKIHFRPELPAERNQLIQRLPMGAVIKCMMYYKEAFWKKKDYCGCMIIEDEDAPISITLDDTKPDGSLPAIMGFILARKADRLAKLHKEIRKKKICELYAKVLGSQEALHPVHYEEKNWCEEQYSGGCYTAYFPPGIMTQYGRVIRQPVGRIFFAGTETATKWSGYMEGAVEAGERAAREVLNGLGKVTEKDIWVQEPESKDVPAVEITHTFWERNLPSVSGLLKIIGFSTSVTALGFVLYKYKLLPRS

[2] = target: T1, Amine oxidase [flavin-containing] A; assay: Inhibition of human MAO-A expressed in expressed in baculovirus infected BTI insect cells using tyramine as substrate by peroxidase-coupled method
[3] = target: T2, Amine oxidase [flavin-containing] B (Homo sapiens, UniProt P27338); assay: biochemical
T2 sequence (P27338 whole entry): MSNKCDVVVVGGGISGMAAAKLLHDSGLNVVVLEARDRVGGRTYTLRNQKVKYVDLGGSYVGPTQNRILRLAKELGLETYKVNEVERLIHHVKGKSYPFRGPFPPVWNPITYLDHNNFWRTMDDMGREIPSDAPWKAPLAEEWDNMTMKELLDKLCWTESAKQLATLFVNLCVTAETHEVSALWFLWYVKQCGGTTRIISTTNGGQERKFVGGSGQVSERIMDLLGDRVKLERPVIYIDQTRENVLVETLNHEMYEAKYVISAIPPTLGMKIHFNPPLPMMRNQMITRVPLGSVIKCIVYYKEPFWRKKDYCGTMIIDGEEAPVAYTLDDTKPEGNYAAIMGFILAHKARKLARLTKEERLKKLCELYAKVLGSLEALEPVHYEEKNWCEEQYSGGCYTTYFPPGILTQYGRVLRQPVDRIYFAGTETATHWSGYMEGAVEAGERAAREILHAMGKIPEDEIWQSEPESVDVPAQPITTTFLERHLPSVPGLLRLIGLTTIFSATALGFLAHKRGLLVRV

HeLa = assay: Antiproliferative activity against human HeLa cells after 48 hrs by MTT assay; type: functional
SH-SY5Y = assay: Antiproliferative activity against human SH-SY5Y cells after 48 hrs by MTT assay; type: functional
[4] = target: T3, Lysine-specific histone demethylase 2 (Homo sapiens, UniProt Q8NB78); assay: Inhibition of LSD2 (unknown origin) using Lys4-dimethylated H3 (1-20) peptide as substrate incubated for 30 mins by peroxidase-coupled assay
T3 sequence (Q8NB78 whole entry): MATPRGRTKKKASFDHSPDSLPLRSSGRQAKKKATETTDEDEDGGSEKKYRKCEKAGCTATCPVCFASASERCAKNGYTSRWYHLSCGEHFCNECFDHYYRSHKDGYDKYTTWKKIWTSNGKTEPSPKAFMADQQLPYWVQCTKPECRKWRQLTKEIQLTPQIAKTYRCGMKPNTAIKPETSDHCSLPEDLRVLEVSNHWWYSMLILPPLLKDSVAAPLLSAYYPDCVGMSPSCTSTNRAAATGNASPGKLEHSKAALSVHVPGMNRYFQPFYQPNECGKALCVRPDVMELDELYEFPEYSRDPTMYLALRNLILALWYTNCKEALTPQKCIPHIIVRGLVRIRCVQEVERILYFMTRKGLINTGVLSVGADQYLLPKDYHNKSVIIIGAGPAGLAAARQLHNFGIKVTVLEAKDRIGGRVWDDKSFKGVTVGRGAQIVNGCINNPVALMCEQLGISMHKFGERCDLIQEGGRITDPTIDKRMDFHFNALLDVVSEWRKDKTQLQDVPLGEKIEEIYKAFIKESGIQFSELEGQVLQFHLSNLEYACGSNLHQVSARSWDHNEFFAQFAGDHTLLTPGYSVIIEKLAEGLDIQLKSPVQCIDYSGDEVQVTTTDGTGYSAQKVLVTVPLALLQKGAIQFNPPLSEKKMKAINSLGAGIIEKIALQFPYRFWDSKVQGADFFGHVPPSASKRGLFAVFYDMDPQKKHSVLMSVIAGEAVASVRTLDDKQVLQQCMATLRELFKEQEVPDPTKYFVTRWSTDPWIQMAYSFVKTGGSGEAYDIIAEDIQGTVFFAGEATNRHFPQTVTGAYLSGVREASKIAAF

[5] = target: T1, Amine oxidase [flavin-containing] A; assay: Inhibition of human MAO-A expressed in baculovirus infected BTI insect cells using tyramine as substrate incubated for 30 mins by peroxidase-coupled assay
[6] = target: T2, Amine oxidase [flavin-containing] B; assay: biochemical; remark: listed apart in the source
[7] = target: Lysine-specific histone demethylase 1A (Homo sapiens, UniProt O60341); assay: Inhibition of human LSD1 expressed in Escherichia coli BL21 (DE3) cells using (ARTK(diMe)QTARKSTGGKAPRKQLA peptide as substrate incubated for 30 mins by HRP reagent based fluorescence method
[8] = target: T1, Amine oxidase [flavin-containing] A; assay: Inhibition of MAO-A (unknown origin) preincubated for 20 mins using 5-hydroxytryptamine as substrate followed by substrate addition and measured after 60 mins
[9] = target: T2, Amine oxidase [flavin-containing] B; assay: Inhibition of MAO-B (unknown origin) using benzylamine as substrate preincubated for 20 mins followed by substrate addition and measured after 60 mins
MV4-11 = assay: Antiproliferative activity against human MV4-11 cells incubated for 6 days by MTS assay; type: functional, cell-based; settings: MV4-11, 144 h
[10] = target: T1, Amine oxidase [flavin-containing] A; assay: Inhibition of human MAO-A expressed in baculovirus infected BTI insect cells by fluorescence method
[11] = target: T2, Amine oxidase [flavin-containing] B; assay: Inhibition of human MAO-B expressed in baculovirus infected BTI insect cells by fluorescence method
HCT-116 = assay: Antiproliferative activity against human HCT116 cells after 48 hrs by MTT assay; type: functional
PC-3 = assay: Antiproliferative activity against human PC-3 cells after 48 hrs by MTT assay; type: functional
KYSE-150 cell line = assay: Antiproliferative activity against human KYSE150 cells after 48 hrs by MTT assay; type: functional
[12] = target: T1, Amine oxidase [flavin-containing] A; assay: biochemical
[13] = target: T2, Amine oxidase [flavin-containing] B; assay: biochemical; remark: listed apart in the source

IC50 [1]: 0.51 µM
SMILES: CN1CCN(C(=O)CN[C@@H]2C[C@H]2c2ccc(OCc3ccccc3)cc2)CC1

SMILES: NC1CC1c1c(F)c(F)c(F)c(F)c1F (stereo unspecified)
Ki [2]: 270 µM | Ki [3]: 8.3 µM

GI50 (HeLa): 4.1 µM | GI50 (SH-SY5Y): 2.4 µM
SMILES: O=C(N[C@@H](CCCCNC1CC1c1ccccc1)C(=O)NCc1cccc(C(F)(F)F)c1)c1ccc(-c2ccccc2)cc1 (stereo partly specified)

SMILES: NC1CC1c1cccc(F)c1OCc1ccccc1 (stereo unspecified)
Ki [2]: 64 µM | Ki [3]: 42 µM

SMILES: NC1CC1c1cc(F)cc(F)c1OCc1ccccc1 (stereo unspecified)
Ki [4]: > 250 µM | Ki [5]: 71 µM | Ki [6]: 33 µM

SMILES: CCN(CC)S(=O)(=O)c1ccc([C@H]2C[C@@H]2N)cc1
IC50 [7]: 0.123 µM | IC50 [8]: 0.806 µM | IC50 [9]: 0.898 µM | IC50 (MV4-11): > 30 µM

SMILES: CCN(CC)S(=O)(=O)c1ccc([C@H]2C[C@@H]2NC(=O)OC(C)(C)C)cc1
IC50 [7]: > 1 µM | IC50 [8]: 0.708 µM | IC50 [9]: 0.655 µM | IC50 (MV4-11): 4.9 µM

IC50 [10]: 5 µM | IC50 [11]: 7 µM
SMILES: COc1ccc(CNC2CC23CCc2ccccc23)c(Cl)c1OC (stereo unspecified)

GI50 (HeLa): 6 µM | GI50 (HCT-116): 6 µM | GI50 (PC-3): 6 µM | GI50 (SH-SY5Y): 6 µM | IC50 [12]: 290 µM | IC50 [13]: > 1000 µM
SMILES: NC1CC1c1ccc(OCC[C@H](NC(=O)c2ccccc2)C(=O)NCc2ccccc2)cc1 (stereo partly specified)
GI50 (KYSE-150 cell line): 6 µM

GI50 (HeLa): 35 µM | GI50 (SH-SY5Y): 17 µM
SMILES: O=C(N[C@@H](CCCCNC1CC1c1ccccc1)C(=O)NCc1ccccc1)c1ccccc1 (stereo partly specified)

IC50 [10]: 2.5 µM | IC50 [11]: 32 µM
SMILES: Fc1ccccc1CNC1CC12CCc1ccccc12 (stereo unspecified)
